The test system of assay [1] is PK activity, ATP levels, RBC parameters. Particulars: mouse model of beta-thalassemia; cited from earlier work.
Assay [2] concerns the target T1, human pyruvate kinase R (PKR) (Homo sapiens, UniProt P30613).
T1 construct: Human pyruvate kinase R (PKR), residues 14-574; 6xHis (N, cleaved yes); 8xArg (N, cleaved yes); SUMO (N, cleaved yes); host or cells: E. coli
The assay is described as follows: Biochemical assay for activation of pyruvate kinase R (Kinase-Glo luminescence, ATP generation). Particulars: for AC50: PKR biochemical assay, 0.1 nM PKR; for Emax: maximal activation level relative to the activation level achieved by AG-348 @ 10 μM. The procedure:
Human pyruvate kinase R (PKR), residues 14-574, and human pyruvate kinase M2, residues 1-531, were cloned into expression plasmids and obtained from ATUM Bio (Newark, CA). Proteins were translated as fusions with 6×-His,8×-Arg, and SUMO at the N-terminus. A third construct of human PKR was truncated, residues 50-574, and similarly cloned for use in crystallography experiments. All proteins were cloned, expressed in E. coli, and purified using similar protocols. Cells were grown at 30° C. in Luria-Bertani broth supplemented with 0.4% glucose to OD600=0.8 and induced with 0.4 mM IPTG at 16° C. for 18 hours. Cells were harvested by centrifugation, resuspended in 50 mM potassium phosphate pH 8.0, 500 mM NaCl, 25 mM imidazole pH 8.0, and 3 mM β-mercaptoethanol. Cells were lysed using a LM20 microfluidizer from Microfluidics (Westwood, MA). The crude lysate was immediately supplemented with 0.2 mM phenylmethylsulfonyl fluoride (PMSF) and centrifuged at 20,000 g for 20 minutes. The soluble fraction was subsequently incubated with 2 mL Ni-NTA (GE Healthcare) per 1,000 ODs for 1 hour at 4° C. Following incubation with the Ni-NTA resin, lysate was removed by pelleting resin at 2,500 g for 3 minutes and washed 3 times with 9 bed volumes of 50 mM potassium phosphate pH 8.0, 500 mM NaCl, 25 mM imidazole, and 3 mM β-mercaptoethanol. Following the batch wash Ni-NTA resin was loaded onto a gravity column and His-tagged protein was eluted with 6 bed volumes of 10 mM Tris/HCl pH 8.0, 200 mM NaCl, 500 mM imidazole, and 3 mM β-mercaptoethanol. Eluted protein was dialyzed overnight against 10 mM Tris/HCl pH 8.0, 200 mM NaCl, and 1 mM DTT and the 6×-His-8×-Arg-SUMO-tag was cleaved using a 20:1 molar ratio of protein:3C protease. The protein was purified by anion exchange chromatography on a HiTrapQ or MonoQ 10/100 GL column (GE Healthcare) via a linear NaCl gradient and twice by size exclusion chromatography using a Superdex S200 26/60 column (GE Healthcare) run in 10 mM Tris/HCl pH 8.0, 200 mM NaCl, 10 mM MgCl2, 1 mM DTT. Proteins were concentrated to ˜12 mg/mL for crystallization and flash frozen for storage.
Activation of pyruvate kinase R (PKR) and pyruvate kinase M2 (PKM2) were measured using a luminescence based measurement of ATP generation and the Kinase-Glo luminescent kinase reagent kit. 0.1 nM of PKR or PKM2 was incubated for 1 hour with 0.3 mM ADP, 2 mM FBP, 1% DMSO, compound and Assay Buffer mix (500 mM Tris/HCl pH 7.5, 500 mM NaCl, 50 mM MgCl2, BSA, and 2 mM DTT, in a total reaction volume of 30 uL. After one hour PEP was added to the reaction at a final concentration of 0.1 mM and incubated for another hour at room temperature. 30 uL of KinaseGlo reagent was added and the reaction was incubated for 15 minutes. Endpoint luminescence data was measured using an EnVision plate reader (PerkinElmer). The assay results are provided in Table 2 for PKR.
(Kinase-Glo reads ATP consumption through a luciferase reaction.)

The target in assay [3] is T2, Pyruvate Kinase M2 (PKM2) in H1299 cells (Homo sapiens, UniProt P14618).
T2 construct: endogenous in cells; host or cells: H1299 cells
The assay is described as follows: Cell based assay for activation of pyruvate kinase M2 in lung carcinoma cell line (H1299, NADH/LDH coupled assay of lysate). Particulars: PKM2 cellular assay; for AC50: H1299 cells, 90 minutes with compound; for PKM2 % activation: maximal activation level relative to the activation level achieved by AG-348 @ 10 μM. The procedure:
H1299 cells were seeded in 96-well plates at 2,000 cells/well (100 uL). Treated plates were incubated overnight at 37° C. with 5% CO2. Compounds were diluted in complete media and added to cells in the presence of 1% DMSO. Cells were incubated with compound for 90 minutes at 37° C. and 5% CO2 before washing three times with PBS to remove residual compound and then lysed in lysis buffer (Cell Signaling). Cell lysate was analyzed using the NADH coupled assay described below with a reaction mixture of 180 uM NADH, 2 mM ADP, 0.5 units of LDH and 0.5 mM of PEP. PKM2 activity was measured at steady state using a coupled enzyme activation system based on NADH consumption. PKM2 produces pyruvate and the coupled system uses lactate dehydrogenase (LDH) to reduce pyruvate to lactate with the concomitant oxidation of NADH to NAD^+. Conversion of NADH to NAD^+ was monitored using a SPECTROstar Nano plate reader (BMG Labtech) at a wavelength of 340 nm and subtraction of background absorbance measured at 750 nm. The change in NADH absorbance after PEP addition was monitored and slope obtained by subtracting baseline at 750 nm followed by least squares fitting to a simple linear regression model. A 10-point curve was generated to calculate the AC50 values by fitting the rates of NADH consumption against increasing concentration of compound.

T2 sequence (P14618 2-531 limits assumed): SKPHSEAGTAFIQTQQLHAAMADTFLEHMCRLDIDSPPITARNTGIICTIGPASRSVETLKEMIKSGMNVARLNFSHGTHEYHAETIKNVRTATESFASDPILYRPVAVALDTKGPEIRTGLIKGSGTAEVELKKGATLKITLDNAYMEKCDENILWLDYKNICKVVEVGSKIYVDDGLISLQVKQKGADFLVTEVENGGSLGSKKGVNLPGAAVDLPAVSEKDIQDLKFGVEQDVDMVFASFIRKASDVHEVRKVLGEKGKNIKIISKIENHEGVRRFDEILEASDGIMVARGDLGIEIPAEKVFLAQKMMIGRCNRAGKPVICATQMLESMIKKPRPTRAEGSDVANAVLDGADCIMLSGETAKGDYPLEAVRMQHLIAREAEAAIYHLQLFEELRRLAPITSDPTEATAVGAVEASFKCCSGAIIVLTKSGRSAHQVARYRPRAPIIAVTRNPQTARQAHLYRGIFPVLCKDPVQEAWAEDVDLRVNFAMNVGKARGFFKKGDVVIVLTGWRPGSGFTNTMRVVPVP
T1 sequence (P30613 14-574): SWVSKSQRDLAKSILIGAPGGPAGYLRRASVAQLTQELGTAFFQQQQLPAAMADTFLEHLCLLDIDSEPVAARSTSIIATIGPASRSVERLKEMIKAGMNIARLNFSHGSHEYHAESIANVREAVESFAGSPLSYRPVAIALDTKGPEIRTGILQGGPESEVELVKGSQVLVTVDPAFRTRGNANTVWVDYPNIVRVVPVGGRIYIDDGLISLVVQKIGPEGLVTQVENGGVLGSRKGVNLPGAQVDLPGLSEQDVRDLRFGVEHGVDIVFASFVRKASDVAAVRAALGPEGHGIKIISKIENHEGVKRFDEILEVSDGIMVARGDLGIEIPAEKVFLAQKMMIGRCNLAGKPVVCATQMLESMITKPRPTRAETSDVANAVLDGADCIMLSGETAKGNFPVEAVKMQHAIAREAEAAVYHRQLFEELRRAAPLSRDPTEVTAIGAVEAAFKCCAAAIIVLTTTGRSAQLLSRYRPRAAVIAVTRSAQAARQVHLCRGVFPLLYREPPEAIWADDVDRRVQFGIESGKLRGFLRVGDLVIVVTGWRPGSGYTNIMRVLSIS

As for `O=C(c1ccc(NS(=O)(=O)c2cccc3cccnc23)cc1)N1CCN(CC2CC2)CC1` [AG-348, Mitapivat], in assay [1], the “PK activity and ATP levels” value is “increased”; the RBC parameters entry is on record as “improved”.

The AC50 is the concentration giving half of the maximal activity seen. The Emax is the maximal effect, on the per cent scale that the assay sets. Turning to `O=C1Nc2ccccc2C1CC(=O)N1Cc2cn(S(=O)(=O)c3cnn(CC(F)F)c3)nc2C1` (stereo not drawn) [Compound 1, 3-[2-(2-{[1-(2,2-difluoroethyl)-1H-pyrazol-4-yl]sulfonyl}-2H,4H,5H,6H-pyrrolo[3,4-c]pyrazol-5-yl)-2-oxoethyl]-2,3-dihydro-1H-indol-2-one], in assay [2], the AC50 was determined as 230 nM and the Emax came to 212%.

In assay [2], `O=C(CN1C(=O)Cc2ccccc21)N1Cc2cn(S(=O)(=O)c3cnn(CC(F)F)c3)nc2C1` [Compound 2, 1-[2-(2-{[1-(2,2-difluoroethyl)-1H-pyrazol-4-yl]sulfonyl}-2H,4H,5H,6H-pyrrolo[3,4-c]pyrazol-5-yl)-2-oxoethyl]-2,3-dihydro-1H-indol-2-one] gave an AC50 of 410 nM and an Emax of 32%.

In assay [2], `O=C(Cn1c(=O)oc2ccccc21)N1Cc2cn(S(=O)(=O)c3cnn(CC(F)F)c3)nc2C1` [Compound 3, 3-[2-(2-{[1-(2,2-difluoroethyl)-1H-pyrazol-4-yl]sulfonyl}-2H,4H,5H,6H-pyrrolo[3,4-c]pyrazol-5-yl)-2-oxoethyl]-2,3-dihydro-1,3-benzoxazol-2-one] displayed a concentration at half-maximal activity (AC50) of 1800 nM and an Emax of 60%.

As to `O=C(Cn1c(=O)[nH]c2ccccc21)N1Cc2cn(S(=O)(=O)c3cnn(CC(F)F)c3)nc2C1` [Compound 4, 1-[2-(2-{[1-(2,2-difluoroethyl)-1H-pyrazol-4-yl]sulfonyl}-2H,4H,5H,6H-pyrrolo[3,4-c]pyrazol-5-yl)-2-oxoethyl]-2,3-dihydro-1H-1,3-benzodiazol-2-one], in assay [2], the AC50 is 10000 nM and the Emax worked out at 78%.

Take `O=C1COc2ccccc2C(C(=O)N2Cc3cn(S(=O)(=O)c4cnn(CC(F)F)c4)nc3C2)N1` (stereo not drawn) [Compound 5, 5-(2-{[1-(2,2-difluoroethyl)-1H-pyrazol-4-yl]sulfonyl}-2H,4H,5H,6H-pyrrolo[3,4-c]pyrazole-5-carbonyl)-2,3,4,5-tetrahydro-1,4-benzoxazepin-3-one]: in assay [2], the AC50 amounted to 490 nM and the Emax came out at 91%.

`O=C1Cc2ccccc2C(C(=O)N2Cc3cn(S(=O)(=O)c4cnn(CC(F)F)c4)nc3C2)N1` (stereo not drawn) [Compound 6, 1-(2-{[1-(2,2-difluoroethyl)-1H-pyrazol-4-yl]sulfonyl}-2H,4H,5H,6H-pyrrolo[3,4-c]pyrazole-5-carbonyl)-1,2,3,4-tetrahydroisoquinolin-3-one]: in assay [2], the AC50 turned out to be 4400 nM and the Emax was 84%.

Take `O=C1COc2c(F)cccc2C(C(=O)N2Cc3cn(S(=O)(=O)c4cnn(CC(F)F)c4)nc3C2)N1` (stereo not drawn) [Compound 7, 5-(2-{[1-(2,2-difluoroethyl)-1H-pyrazol-4-yl]sulfonyl}-2H,4H,5H,6H-pyrrolo[3,4-c]pyrazole-5-carbonyl)-9-fluoro-2,3,4,5-tetrahydro-1,4-benzoxazepin-3-one]: in assay [2], the activity was half-maximal at 1800 nM (AC50) and the Emax amounted to 66%.

Regarding `CC1(CC(=O)N2Cc3cn(S(=O)(=O)c4cnn(CC(F)F)c4)nc3C2)C(=O)Nc2ccccc21` (stereo not drawn) [Compound 8, 3-[2-(2-{[1-(2,2-difluoroethyl)-1H-pyrazol-4-yl]sulfonyl}-2H,4H,5H,6H-pyrrolo[3,4-c]pyrazol-5-yl)-2-oxoethyl]-3-methyl-2,3-dihydro-1H-indol-2-one], in assay [2], half-maximal activity (AC50) was put at 1900 nM and the Emax was 95%.

On to `O=C1Nc2ccccc2C1CC(=O)N1Cc2cn(S(=O)(=O)c3ccc4ncsc4c3)nc2C1` (stereo not drawn) [Compound 9, 3-{2-[2-(1,3-benzothiazole-6-sulfonyl)-2H,4H,5H,6H-pyrrolo[3,4-c]pyrazol-5-yl]-2-oxoethyl}-2,3-dihydro-1H-indol-2-one], for which, in assay [2], the AC50 stood at 28 nM and the maximum response (Emax) came out at 161%. Further, in assay [3], the AC50 amounted to 100 nM and the PKM2 % activation worked out at 87%.

In assay [2], `O=C1Nc2ccccc2C1CC(=O)N1Cc2cn(S(=O)(=O)c3ccc(OC(F)F)cc3)nc2C1` (stereo not drawn) [Compound 10, 3-(2-{2-[4-(difluoromethoxy)benzenesulfonyl]-2H,4H,5H,6H-pyrrolo[3,4-c]pyrazol-5-yl}-2-oxoethyl)-2,3-dihydro-1H-indol-2-one] gave an AC50 of 78 nM and an Emax of 129%. For the same compound, in assay [3], the AC50 is 14 nM and the PKM2 % activation is listed as 165%.

For the compound `O=C(CN1C(=O)Cc2ccccc21)N1Cc2cn(S(=O)(=O)c3ccc(OC(F)F)cc3)nc2C1` [Compound 11, 1-(2-{2-[4-(difluoromethoxy)benzenesulfonyl]-2H,4H,5H,6H-pyrrolo[3,4-c]pyrazol-5-yl}-2-oxoethyl)-2,3-dihydro-1H-indol-2-one], in assay [2], the AC50 stood at 1700 nM and the Emax came to 77%.

As to `O=C1COc2ccccc2C(C(=O)N2Cc3cn(S(=O)(=O)c4ccc(OC(F)F)cc4)nc3C2)N1` (stereo not drawn) [Compound 12, 5-{2-[4-(difluoromethoxy)benzenesulfonyl]-2H,4H,5H,6H-pyrrolo[3,4-c]pyrazole-5-carbonyl}-2,3,4,5-tetrahydro-1,4-benzoxazepin-3-one], in assay [2], the activity was half-maximal at 210 nM (AC50) and the maximum response (Emax) came to 91%.

Values taken from patent US20240408107A1, “LACTAM PYRROLIDINE-PYRAZOLES AS PYRUVATE KINASE ACTIVATORS” (Global Blood Therapeutics, Inc., priority 2021, published 2024).
